Columns and labels:
Brain = test: Ratio of drug level in Swiss mouse brain at 10 mg/kg, sc after 1.5 hrs to drug level in Swiss mouse brain at 10 mg/kg, sc after 1 hr; format: ADME, organism-based; conditions: in vivo
[1] = Drug metabolism in human liver microsomes at 5 uM after 15 mins; format: ADME, Microsome; conditions: read-out: Drug metabolism
hERG = hERG (Homo sapiens, UniProt Q12809); test: Inhibition of human ERG expressed in HEK293 cells assessed as whole cell current at 3 uM after 5 mins by automated patch-clamp assay relative to control; format: cell-based; conditions: HEK293 cells expressing hERG
[2] = Drug level in Swiss mouse brain at 10 mg/kg, sc after 1 hr; format: ADME, organism-based; design: dose 10 mg/kg, route subcutaneous; conditions: read-out: Drug uptake
[3] = Drug metabolism in rat liver microsomes at 5 uM after 15 mins; format: ADME, Microsome; conditions: read-out: Drug metabolism
[4] = target: T1, Metabotropic glutamate receptor 2 (Homo sapiens, UniProt Q14416); test: Positive allosteric modulation of human mGlu2 receptor expressed in CHO cells assessed as glutamate-induced [35S]GTPgammaS binding after 30 mins by liquid scintillation counting relative to glutamate; format: functional, cell-based
Target sequence in this assay (Q14416 19-872 limits assumed): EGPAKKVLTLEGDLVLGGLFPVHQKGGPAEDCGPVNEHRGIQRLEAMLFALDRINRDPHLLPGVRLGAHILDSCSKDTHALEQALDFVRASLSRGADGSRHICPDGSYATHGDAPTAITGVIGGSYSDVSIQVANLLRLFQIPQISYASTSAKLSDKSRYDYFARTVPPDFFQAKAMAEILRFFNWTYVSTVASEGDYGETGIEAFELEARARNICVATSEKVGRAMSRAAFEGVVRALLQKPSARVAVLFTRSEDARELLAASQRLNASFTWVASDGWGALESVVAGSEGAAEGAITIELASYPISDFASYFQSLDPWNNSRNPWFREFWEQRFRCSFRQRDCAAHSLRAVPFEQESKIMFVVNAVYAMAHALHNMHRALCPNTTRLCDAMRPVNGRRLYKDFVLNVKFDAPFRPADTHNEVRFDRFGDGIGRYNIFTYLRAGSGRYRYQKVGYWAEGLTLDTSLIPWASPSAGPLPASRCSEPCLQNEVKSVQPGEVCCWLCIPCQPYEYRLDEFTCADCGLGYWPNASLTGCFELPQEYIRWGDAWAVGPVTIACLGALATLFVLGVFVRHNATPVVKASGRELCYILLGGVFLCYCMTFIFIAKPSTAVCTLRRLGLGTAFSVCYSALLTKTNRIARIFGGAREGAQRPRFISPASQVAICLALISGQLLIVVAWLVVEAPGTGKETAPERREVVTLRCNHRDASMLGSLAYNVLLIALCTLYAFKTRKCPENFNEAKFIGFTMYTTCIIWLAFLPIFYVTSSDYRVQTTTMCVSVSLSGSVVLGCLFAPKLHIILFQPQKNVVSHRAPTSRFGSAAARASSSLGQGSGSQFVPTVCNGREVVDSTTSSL

[5] = Ratio of drug level in brain to plasma in Swiss mouse at 10 mg/kg, sc after 1 hr; format: ADME, organism-based; design: dose 10 mg/kg, route subcutaneous; conditions: read-out: BPR
[6] = Drug level in Swiss mouse brain at 10 mg/kg, sc after 0.5 hrs; format: ADME, organism-based; design: dose 10 mg/kg, route subcutaneous; conditions: read-out: Drug uptake
[7] = Drug level in Swiss mouse brain at 10 mg/kg, sc after 1.5 hrs; format: ADME, organism-based; design: dose 10 mg/kg, route subcutaneous; conditions: read-out: Drug uptake
CYP2D6 [8] = target: T2, CYP2D6 (Homo sapiens, UniProt P10635); test: Inhibition of CYP2D6 at 5 uM; format: ADME
CYP2C19 [9] = target: T3, CYP2C19 (Homo sapiens, UniProt P33261); test: Inhibition of CYP2C19 at 5 uM; format: ADME
CYP1A2 [10] = target: T4, CYP1A2 (Homo sapiens, UniProt P05177); test: Inhibition of CYP1A2 at 5 uM; format: ADME
T4 sequence (P05177 whole entry): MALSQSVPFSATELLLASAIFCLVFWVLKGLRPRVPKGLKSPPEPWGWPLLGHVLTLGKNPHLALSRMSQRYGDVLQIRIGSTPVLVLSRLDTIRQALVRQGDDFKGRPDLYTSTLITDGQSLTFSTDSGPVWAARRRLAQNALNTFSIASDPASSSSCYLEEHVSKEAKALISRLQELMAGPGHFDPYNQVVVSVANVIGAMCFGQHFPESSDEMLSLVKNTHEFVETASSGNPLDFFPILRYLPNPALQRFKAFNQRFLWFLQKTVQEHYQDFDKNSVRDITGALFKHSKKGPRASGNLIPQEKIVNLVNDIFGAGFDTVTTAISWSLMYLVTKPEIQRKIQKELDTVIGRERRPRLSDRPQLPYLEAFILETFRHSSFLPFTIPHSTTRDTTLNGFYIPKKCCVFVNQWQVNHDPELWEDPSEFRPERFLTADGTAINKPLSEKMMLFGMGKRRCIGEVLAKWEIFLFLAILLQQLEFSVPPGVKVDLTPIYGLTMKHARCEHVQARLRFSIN

[11] = target: T1, Metabotropic glutamate receptor 2; test: Positive allosteric modulation of human mGlu2 receptor expressed in CHO cells assessed as glutamate-induced [35S]GTPgammaS binding after 30 mins by liquid scintillation counting; format: functional, cell-based
Target sequence in this assay (Q14416 whole entry): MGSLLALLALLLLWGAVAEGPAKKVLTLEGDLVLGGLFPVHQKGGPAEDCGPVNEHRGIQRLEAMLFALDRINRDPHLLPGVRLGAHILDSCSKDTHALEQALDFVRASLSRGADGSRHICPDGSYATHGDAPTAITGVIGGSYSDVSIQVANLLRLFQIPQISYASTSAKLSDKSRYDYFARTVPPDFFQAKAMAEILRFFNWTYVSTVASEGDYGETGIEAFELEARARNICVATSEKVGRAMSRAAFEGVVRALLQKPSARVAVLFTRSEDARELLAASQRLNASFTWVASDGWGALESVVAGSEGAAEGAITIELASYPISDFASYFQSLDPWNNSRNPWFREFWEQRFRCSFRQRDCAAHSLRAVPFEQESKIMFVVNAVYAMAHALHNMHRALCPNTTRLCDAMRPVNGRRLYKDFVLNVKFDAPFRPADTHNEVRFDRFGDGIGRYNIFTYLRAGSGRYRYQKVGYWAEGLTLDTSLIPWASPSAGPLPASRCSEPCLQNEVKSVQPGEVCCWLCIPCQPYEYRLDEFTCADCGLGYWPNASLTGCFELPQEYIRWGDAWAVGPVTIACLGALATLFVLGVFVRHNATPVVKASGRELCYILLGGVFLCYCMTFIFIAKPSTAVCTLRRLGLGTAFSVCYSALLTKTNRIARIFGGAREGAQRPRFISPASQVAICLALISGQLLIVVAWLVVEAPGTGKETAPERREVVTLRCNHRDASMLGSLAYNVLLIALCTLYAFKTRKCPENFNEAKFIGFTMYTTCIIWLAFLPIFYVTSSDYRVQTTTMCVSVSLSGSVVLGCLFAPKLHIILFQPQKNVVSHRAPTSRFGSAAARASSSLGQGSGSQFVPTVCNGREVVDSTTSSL

CYP2C9 [12] = target: T5, CYP2C9 (Homo sapiens, UniProt P11712); test: Inhibition of CYP2C9 at 5 uM; format: ADME
[13] = Aqueous solubility of the compound in 20% HP-beta-CD buffer at pH 4 to 7.4; format: physicochemical
CYP3A4 [14] = target: T6, CYP3A4 (Homo sapiens, UniProt P08684); test: Inhibition of CYP3A4 at 5 uM; format: ADME
CYP2D6 [15] = target: T2, CYP2D6; test: Inhibition of CYP2D6 at 1 uM; format: ADME
CYP1A2 [16] = target: T4, CYP1A2; test: Inhibition of CYP1A2 at 1 uM; format: ADME
CYP2C19 [17] = target: T3, CYP2C19; test: Inhibition of CYP2C19 at 1 uM; format: ADME
[18] = Aqueous solubility of the compound in 20% HP-beta-CD buffer at pH 4; format: physicochemical
CYP2C9 [19] = target: T5, CYP2C9; test: Inhibition of CYP2C9 at 1 uM; format: ADME
CYP3A4 [20] = target: T6, CYP3A4; test: Inhibition of CYP3A4 at 1 uM; format: ADME

T5 sequence (P11712 whole entry): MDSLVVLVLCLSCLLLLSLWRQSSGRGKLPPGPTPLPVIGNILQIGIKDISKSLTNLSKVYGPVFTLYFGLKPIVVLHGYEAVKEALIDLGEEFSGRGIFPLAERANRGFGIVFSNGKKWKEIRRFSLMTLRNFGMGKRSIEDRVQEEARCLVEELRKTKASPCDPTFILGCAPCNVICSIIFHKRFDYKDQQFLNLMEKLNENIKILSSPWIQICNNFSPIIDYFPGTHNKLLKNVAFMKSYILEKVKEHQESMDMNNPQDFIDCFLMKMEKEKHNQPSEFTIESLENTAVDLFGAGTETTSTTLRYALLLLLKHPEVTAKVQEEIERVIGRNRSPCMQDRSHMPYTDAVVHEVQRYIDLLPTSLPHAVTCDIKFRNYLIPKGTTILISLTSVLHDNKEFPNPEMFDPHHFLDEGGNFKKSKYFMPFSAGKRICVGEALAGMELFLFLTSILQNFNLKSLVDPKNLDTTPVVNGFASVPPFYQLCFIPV
T6 sequence (P08684 whole entry): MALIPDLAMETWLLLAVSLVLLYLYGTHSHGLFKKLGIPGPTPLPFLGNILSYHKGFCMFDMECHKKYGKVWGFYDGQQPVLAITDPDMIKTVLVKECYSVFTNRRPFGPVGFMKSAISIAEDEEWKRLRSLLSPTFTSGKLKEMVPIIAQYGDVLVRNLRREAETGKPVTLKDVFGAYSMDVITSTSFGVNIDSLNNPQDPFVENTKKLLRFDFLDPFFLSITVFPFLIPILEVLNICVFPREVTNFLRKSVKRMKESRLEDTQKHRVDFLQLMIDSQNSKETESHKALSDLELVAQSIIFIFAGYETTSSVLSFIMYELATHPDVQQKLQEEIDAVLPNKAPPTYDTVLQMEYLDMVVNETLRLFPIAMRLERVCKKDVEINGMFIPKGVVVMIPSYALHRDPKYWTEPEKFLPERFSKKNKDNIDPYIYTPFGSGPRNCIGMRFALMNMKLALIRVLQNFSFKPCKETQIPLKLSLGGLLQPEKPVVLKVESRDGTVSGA
hERG, sequence (Q12809 whole entry): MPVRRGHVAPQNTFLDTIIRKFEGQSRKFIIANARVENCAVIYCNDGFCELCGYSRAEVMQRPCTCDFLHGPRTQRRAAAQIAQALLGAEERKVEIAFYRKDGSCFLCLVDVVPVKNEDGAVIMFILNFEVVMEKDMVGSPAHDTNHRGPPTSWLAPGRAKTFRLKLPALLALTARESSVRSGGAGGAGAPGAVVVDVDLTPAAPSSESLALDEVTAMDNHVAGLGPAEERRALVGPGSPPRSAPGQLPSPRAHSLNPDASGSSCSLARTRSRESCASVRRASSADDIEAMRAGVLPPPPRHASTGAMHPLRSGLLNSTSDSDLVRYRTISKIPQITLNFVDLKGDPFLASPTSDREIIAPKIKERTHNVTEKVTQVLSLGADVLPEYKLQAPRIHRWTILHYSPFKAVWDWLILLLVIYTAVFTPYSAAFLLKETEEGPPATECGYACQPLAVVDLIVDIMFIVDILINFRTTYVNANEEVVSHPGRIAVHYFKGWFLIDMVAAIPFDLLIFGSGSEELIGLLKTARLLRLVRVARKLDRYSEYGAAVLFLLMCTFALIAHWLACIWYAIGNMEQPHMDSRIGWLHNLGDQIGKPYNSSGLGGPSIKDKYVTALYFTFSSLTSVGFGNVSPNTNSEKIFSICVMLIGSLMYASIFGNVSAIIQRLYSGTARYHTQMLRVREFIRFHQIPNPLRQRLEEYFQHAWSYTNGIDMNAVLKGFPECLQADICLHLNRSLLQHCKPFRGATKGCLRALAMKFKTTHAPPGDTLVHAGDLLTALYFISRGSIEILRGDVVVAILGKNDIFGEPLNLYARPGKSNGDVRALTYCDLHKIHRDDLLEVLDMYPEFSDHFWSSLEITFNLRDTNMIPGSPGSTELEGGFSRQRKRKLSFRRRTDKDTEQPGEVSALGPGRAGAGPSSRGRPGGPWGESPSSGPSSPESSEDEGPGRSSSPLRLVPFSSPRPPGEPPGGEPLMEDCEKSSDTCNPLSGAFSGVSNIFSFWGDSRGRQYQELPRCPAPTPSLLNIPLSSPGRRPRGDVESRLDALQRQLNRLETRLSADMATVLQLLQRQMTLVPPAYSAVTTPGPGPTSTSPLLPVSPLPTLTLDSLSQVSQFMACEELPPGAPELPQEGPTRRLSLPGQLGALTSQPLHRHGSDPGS
T3 sequence (P33261 whole entry): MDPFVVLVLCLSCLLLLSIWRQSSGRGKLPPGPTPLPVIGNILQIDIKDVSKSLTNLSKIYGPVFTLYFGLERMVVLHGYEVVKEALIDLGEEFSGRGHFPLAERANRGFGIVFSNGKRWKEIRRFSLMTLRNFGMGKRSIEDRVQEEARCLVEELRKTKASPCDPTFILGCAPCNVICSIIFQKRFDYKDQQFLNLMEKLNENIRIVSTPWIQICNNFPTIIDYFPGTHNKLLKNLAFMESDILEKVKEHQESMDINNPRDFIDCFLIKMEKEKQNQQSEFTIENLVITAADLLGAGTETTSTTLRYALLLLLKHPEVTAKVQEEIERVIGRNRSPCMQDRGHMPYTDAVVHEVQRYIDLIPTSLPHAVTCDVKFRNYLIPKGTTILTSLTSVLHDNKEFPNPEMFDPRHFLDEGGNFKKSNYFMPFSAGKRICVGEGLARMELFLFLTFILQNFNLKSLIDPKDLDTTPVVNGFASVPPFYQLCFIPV
T2 sequence (P10635 whole entry): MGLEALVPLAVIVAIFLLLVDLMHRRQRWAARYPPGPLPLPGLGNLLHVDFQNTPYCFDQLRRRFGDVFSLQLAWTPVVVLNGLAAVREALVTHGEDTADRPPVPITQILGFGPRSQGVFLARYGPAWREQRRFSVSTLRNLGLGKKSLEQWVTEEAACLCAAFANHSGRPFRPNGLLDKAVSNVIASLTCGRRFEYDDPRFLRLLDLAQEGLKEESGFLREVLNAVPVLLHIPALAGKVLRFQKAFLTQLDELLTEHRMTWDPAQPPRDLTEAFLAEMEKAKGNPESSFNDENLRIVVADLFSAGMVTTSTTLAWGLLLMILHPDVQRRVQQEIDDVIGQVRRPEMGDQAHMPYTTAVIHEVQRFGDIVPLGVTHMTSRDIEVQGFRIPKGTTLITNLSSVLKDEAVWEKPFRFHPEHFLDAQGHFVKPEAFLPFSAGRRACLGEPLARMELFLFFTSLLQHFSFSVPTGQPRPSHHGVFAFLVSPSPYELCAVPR

| metabolised at 0.25 h, 5 µM [1] | metabolised at 0.25 h, 5 µM [3] | Emax [4] | EC50 [11] | SMILES | inhibition at 5 min, 3 µM (hERG) | also measured |
| --- | --- | --- | --- | --- | --- | --- |
| 31% | 44% | 243% |  | CCCCn1ccc(-c2ccc(Oc3ccnc(C)c3)cc2)c(C#N)c1=O | 53% | Ratio (Brain): 2; concentration at 1 h [2]: 994 ng/g; Kp at 1 h [5]: 0.5; concentration at 0.5 h [6]: 1160 ng/g; concentration at 1.5 h [7]: 592 ng/g |
| 61% | 47% | 266% | 0.447 µM | Cc1cc(Oc2ccc(-c3ccn(CCC(C)C)c(=O)c3C#N)cc2)ccn1 |  | inhibition at 5 µM (CYP2D6 [8]): < 50%; inhibition at 5 µM (CYP2C19 [9]): < 50%; inhibition at 5 µM (CYP1A2 [10]): < 50%; inhibition at 5 µM (CYP2C9 [12]): < 50% |
| 36% | 32% | 188% | 0.042 µM | CC(C)CCn1ccc(-c2ccc(Oc3ccccc3)cc2)c(C#N)c1=O |  | solubility [13]: > 1 µg/mL; inhibition at 5 µM (CYP3A4 [14]): < 50% |
| 27% | 41% | 245% | 0.55 µM | CC(C)CCn1ccc(-c2ccc(Oc3ccncc3)cc2)c(C#N)c1=O | 52% | inhibition at 1 µM (CYP2D6 [15]): 84%; inhibition at 1 µM (CYP1A2 [16]): 80%; inhibition at 1 µM (CYP2C19 [17]): 97%; solubility [18]: ≥ 4000 µg/mL; inhibition at 1 µM (CYP2C9 [19]): 82%; inhibition at 1 µM (CYP3A4 [20]): 70% |
